Test results as given in US8440442B2, “Method of assaying 5-FU” (Myriad Genetics, Inc, priority 2009, dated 2013).

Molecular target: T1, dihydropyrimidine dehydrogenase (DPD) (Homo sapiens, UniProt Q12882)
T1 construct: from tissue; host or cells: donor whole blood (K2EDTA), plasma separated from it, and WBC/buffy coat
T1 sequence (Q12882 4-1025): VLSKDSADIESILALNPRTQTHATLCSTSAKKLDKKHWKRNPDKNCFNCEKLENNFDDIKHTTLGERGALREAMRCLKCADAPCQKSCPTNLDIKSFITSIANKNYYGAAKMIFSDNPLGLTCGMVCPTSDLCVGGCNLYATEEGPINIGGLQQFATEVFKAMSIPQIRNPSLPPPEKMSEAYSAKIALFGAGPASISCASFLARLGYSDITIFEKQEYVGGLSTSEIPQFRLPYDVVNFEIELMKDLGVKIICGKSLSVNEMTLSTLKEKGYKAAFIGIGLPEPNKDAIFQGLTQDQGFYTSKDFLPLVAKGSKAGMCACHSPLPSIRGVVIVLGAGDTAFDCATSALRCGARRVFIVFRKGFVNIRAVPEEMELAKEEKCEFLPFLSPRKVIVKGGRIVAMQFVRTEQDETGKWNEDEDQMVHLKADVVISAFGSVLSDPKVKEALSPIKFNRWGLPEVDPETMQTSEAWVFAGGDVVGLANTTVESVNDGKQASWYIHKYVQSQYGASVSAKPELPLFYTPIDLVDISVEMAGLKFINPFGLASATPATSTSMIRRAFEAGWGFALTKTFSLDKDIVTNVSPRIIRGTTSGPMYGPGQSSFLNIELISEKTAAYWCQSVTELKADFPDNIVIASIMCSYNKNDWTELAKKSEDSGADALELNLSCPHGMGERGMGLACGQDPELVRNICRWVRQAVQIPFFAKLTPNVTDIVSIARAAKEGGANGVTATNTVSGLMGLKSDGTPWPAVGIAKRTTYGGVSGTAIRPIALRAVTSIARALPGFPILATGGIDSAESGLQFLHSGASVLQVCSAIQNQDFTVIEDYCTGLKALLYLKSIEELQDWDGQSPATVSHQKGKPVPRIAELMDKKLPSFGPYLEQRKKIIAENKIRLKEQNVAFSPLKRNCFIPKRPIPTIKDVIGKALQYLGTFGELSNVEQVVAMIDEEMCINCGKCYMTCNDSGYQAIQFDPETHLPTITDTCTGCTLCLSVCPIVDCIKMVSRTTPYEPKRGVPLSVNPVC
Test: Amount of DPD inactivator needed: gimeracil in 5-FU spiked blood, plasma with or without added WBC/buffy coat
Assay type: biochemical
Details: for Average 5-FU Measurement Initial / Average 5-FU Measurement 24-hour: in ng/mL; for Average 5-FU Measurement 24-hour: plasma 24 hours at room temperature
Experimental: In the following illustrative examples, 5-FU was measured using an antibody-based agglutination assay on the Olympus AU680 Analyzer using an antibody disclosed in U.S. Pat. No. 7,205,116. Specifically, the concentration of 5-FU in a sample is determined based on the absorbance of a sample, which is determined by the amount of aggregation by the nanoparticles. The system requires two reagents, which when mixed in the absence of free 5-FU will form large aggregates of nanoparticles and scatter light to result in a higher absorption value. In the presence of free 5-FU, the agglutination reaction becomes somewhat inhibited and scattering of light is less, causing a lower absorption value. The instrument is calibrated twice monthly, and a curve is generated (Absorbance vs. 5-FU concentration). Absorbance values from individual samples are compared against this curve to determine concentration.
Generally in the agglutination assay, 95 μl of a buffer containing 5-FU-labeled amino-dextran is pipetted to a cuvette, followed by 7 μL of a filtered plasma sample. The sample and reagent are mixed and then incubated for about 3.5 minutes. 95 μl of 5-FU antibody-conjugated nanoparticles is pipetted into the cuvette and mixed. The complete reaction incubates for about 6.2 minutes. A series of 27 measurements at 600 nm are taken at regular intervals by the AU680 analyzer throughout this process, and 5-FU concentration is calculated using the measurements from two specific time points.
Four tubes of blood (spray-on K2EDTA tubes, 10 mL) was drawn from each of six donors, and gently inverted several times to mix anti-coagulant. All donor blood was pooled into one large tube, and two equal aliquots of that pooled blood were transferred to two new tubes. The remaining blood was used to isolate white blood cell (WBC)/buffy coat. WBC/buffy coat was isolated by centrifuging the remaining blood tubes, extracting and pooling the WBC layer from each tube, centrifuging again to enrich the WBC/buffy coat, and separating the enriched WBC/buffy coat layer into a clean tube. One volume of blood was spiked with a calculated volume of stock 5-FU (at 200 ng/μL) for a final concentration of 500 ng/mL, and the other volume of blood was spiked with a calculated volume of stock 5-FU (at 200 ng/μL) for a final concentration of 1500 ng/mL. Three sets of eight tubes each were prepared to aliquot the spiked blood into. In addition, a negative control was used that was inoculated with 300 μL of 30% methanol/water instead of gimeracil. To four of the eight tubes per set, the low concentration 5-FU blood was aliquotted, 6 mL each tube. The high concentration 5-FU blood was aliquotted to the remaining four tubes per set, as well as to the negative control tube, 6 mL each. The eight tubes were then inoculated with either 300 μL of 0.12 mg/mL gimeracil in 30% MeOH/water or 300 μL of 0.04 mg/mL gimeracil. Blood tubes were inverted to mix the gimeracil, and then sat at room temperature for 45 minutes. Blood tubes were centrifuged at 2000×g for 10 minutes and room temperature. Plasma was aspirated immediately after centrifugation and dispensed into clean cryovials. The WBC/buffy coat was added to designated tubes of plasma, and vortexed to evenly mix. Plasma samples were run under standard conditions for the AU680 analyzer (200 μL, spin for 15 minutes at 12,500 rpm). Measurements were taken immediately after adding WBC/buffy coat (“initial”), as well as 24 hours (“24-hour”), after addition of WBC/buffy coat. For the 24-hour measurement, plasma was stored at room temperature for the first 24 hours of the experiment to simulate overnight ambient shipping.

[1] = target 5-FU 500 ng/mL, gimeracil 2000 ng/mL, NO WBC
[2] = target 5-FU 500 ng/mL, gimeracil 2000 ng/mL, w/WBC
[3] = target 5-FU 500 ng/mL, gimeracil 6000 ng/mL, NO WBC
[4] = target 5-FU 500 ng/mL, gimeracil 6000 ng/mL, w/WBC
[5] = target 5-FU 1500 ng/mL, gimeracil 2000 ng/mL, NO WBC
[6] = target 5-FU 1500 ng/mL, gimeracil 2000 ng/mL, w/WBC
[7] = target 5-FU 1500 ng/mL, gimeracil 6000 ng/mL, NO WBC
[8] = target 5-FU 1500 ng/mL, gimeracil 6000 ng/mL, w/WBC

Oc1cc(O)c(Cl)cn1 [Gimeracil, 5-chloro-2,4-dihydroxypyridine]
% change (Initial vs. 24-hour) [1]: −2.9%
Average 5-FU Measurement Initial (target 5-FU 500 ng/mL, gimeracil 2000 ng/mL, NO WBC, initial): 488.3
Average 5-FU Measurement 24-hour [1]: 474.3
% change (Initial vs. 24-hour) [2]: 2.7%
Average 5-FU Measurement Initial (target 5-FU 500 ng/mL, gimeracil 2000 ng/mL, w/WBC, immediately after adding WBC/buffy coat): 465.8
Average 5-FU Measurement 24-hour [2]: 478.6
% change (Initial vs. 24-hour) [3]: 1.7%
Average 5-FU Measurement Initial (target 5-FU 500 ng/mL, gimeracil 6000 ng/mL, NO WBC, initial): 479.1
Average 5-FU Measurement 24-hour [3]: 487.3
% change (Initial vs. 24-hour) [4]: 1.0%
Average 5-FU Measurement Initial (target 5-FU 500 ng/mL, gimeracil 6000 ng/mL, w/WBC, initial): 473.7
Average 5-FU Measurement 24-hour [4]: 478.6
% change (Initial vs. 24-hour) [5]: −0.5%
Average 5-FU Measurement Initial (target 5-FU 1500 ng/mL, gimeracil 2000 ng/mL, NO WBC, initial): 1434.9
Average 5-FU Measurement 24-hour [5]: 1427.3
% change (Initial vs. 24-hour) [6]: 2.9%
Average 5-FU Measurement Initial (target 5-FU 1500 ng/mL, gimeracil 2000 ng/mL, w/WBC, initial): 1377.7
Average 5-FU Measurement 24-hour [6]: 1418.1
% change (Initial vs. 24-hour) [7]: 2.0%
Average 5-FU Measurement Initial (target 5-FU 1500 ng/mL, gimeracil 6000 ng/mL, NO WBC, initial): 1430.3
Average 5-FU Measurement 24-hour [7]: 1458.3
% change (Initial vs. 24-hour) [8]: −0.9%
Average 5-FU Measurement Initial (target 5-FU 1500 ng/mL, gimeracil 6000 ng/mL, w/WBC, initial): 1402.9
Average 5-FU Measurement 24-hour [8]: 1390.1
